Results on 16 compounds are retold here after PubChem BioAssay (NCI).

Structures are written as SMILES. Several values for one entry are separate records, joined by “and”; a condition that tells them apart may be missing. Equal values may be shown once.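 Tested at 5 concentrations; 48 h exposure; 96-well plates; endpoints linearly interpolated, else capped at highest concentration. TGI: concentration producing complete growth inhibition.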 Bounds are passed on as bounds.

Among the test systems are KM12 colon; UACC-257 melanoma; MCF7 breast; NCI-H23 lung; SK-OV-3 ovarian; SR leukemia; SK-MEL-28 melanoma; A498 renal; SF-539 CNS; HOP-92 NSCLC.
Assay in all cases: growth of human tumour cells (NCI), 48 h

For `O=C(O)CCCN=C(C(=NCCCC(=O)O)c1ccccc1)c1ccccc1`, the TGI in the assay on KM12 colon, in the assay on UACC-257 melanoma, with MCF7 breast, in the assay with NCI-H23 lung, with SK-OV-3 ovarian and with SR leukemia was greater than 100 µM each time. Besides, the TGI in the assay on SK-MEL-28 melanoma and in the assay with A498 renal was greater than 100 µM throughout.

Consider `CCOC(=O)C1C(=O)c2cccc(OC)c2C2COC(=O)N12` (stereo not given), for which the TGI in the assay with SF-539 CNS, in the assay with HOP-92 NSCLC, in the assay with KM12 colon, with UACC-257 melanoma, with NCI-H23 lung and in the assay with SK-OV-3 ovarian was greater than 100 µM throughout. The TGI in the assay on SR leukemia and with SK-MEL-28 melanoma was greater than 100 µM each time.

On to `COC(=O)C(=O)C(C(=O)C(=O)Nc1nc(=S)[nH][nH]1)c1nc2ccc([N+](=O)[O-])cc2[nH]c1=O` (stereo not given), for which the TGI with SF-539 CNS, with HOP-92 NSCLC, in the assay with KM12 colon, with UACC-257 melanoma, in the assay with MCF7 breast and in the assay with NCI-H23 lung was greater than 100 µM each time. Besides, the TGI in the assay with SK-OV-3 ovarian, in the assay on SK-MEL-28 melanoma and with A498 renal was greater than 100 µM throughout.

On to `O=c1[nH]c(Br)nc2c(N3CCCCC3)c[nH]c12`, for which the TGI in the assay with SF-539 CNS, in the assay on HOP-92 NSCLC, with KM12 colon, in the assay on UACC-257 melanoma, in the assay with NCI-H23 lung and in the assay with SK-OV-3 ovarian was greater than 100 µM in each case. Moreover, the TGI in the assay with SK-MEL-28 melanoma and in the assay with A498 renal was greater than 100 µM in each case.

Consider `CCOc1ccccc1NC(=O)C(=O)c1c(O)c2ccc(O)cc2oc1=O`, for which the TGI in the assay with SF-539 CNS, in the assay with KM12 colon, with UACC-257 melanoma, in the assay with NCI-H23 lung, with SK-OV-3 ovarian and in the assay on SR leukemia was greater than 100 µM in each case. Further, the TGI with SK-MEL-28 melanoma and in the assay on A498 renal was greater than 100 µM each time.

`CC(=O)Oc1cc2c(n(C)c1=O)CCC2`: the TGI in the assay on SF-539 CNS, with HOP-92 NSCLC, with KM12 colon, in the assay on UACC-257 melanoma, in the assay with MCF7 breast and with NCI-H23 lung was greater than 100 µM in each case. In addition, the TGI with SK-OV-3 ovarian, with SK-MEL-28 melanoma and in the assay with A498 renal was greater than 100 µM throughout.

`Cc1cc2nc3c(C#N)c4c(c(Nc5ccc(Cl)cc5)n3c2cc1C)CCC4`: the TGI in the assay on SF-539 CNS was 48.7 µM; in the assay with HOP-92 NSCLC it was 47.8 µM; in the assay on KM12 colon it was greater than 100 µM; with UACC-257 melanoma it was 76.6 µM; with NCI-H23 lung it was 57.2 µM; in the assay with SK-OV-3 ovarian, greater than 100 µM. The figures for the TGI in the assay with SK-MEL-28 melanoma and in the assay on A498 renal were 47.2 µM and greater than 100 µM, respectively.

As to `C1COCCOP2(N3CC3)=NP(N3CC3)(=NP(N3CC3)(N3CC3)=N2)OCCOCCO1` (stereo not given), the TGI in the assay with SF-539 CNS, in the assay with KM12 colon, in the assay on UACC-257 melanoma, in the assay with MCF7 breast, in the assay with NCI-H23 lung and with SK-OV-3 ovarian was greater than 100 µM throughout. The TGI with SR leukemia and with A498 renal was greater than 100 µM throughout.

With `OCC(O)C(O)C(C=NNc1ncnc2ccc(Br)cc12)=NNc1ncnc2ccc(Br)cc12` (stereo not given), the TGI in the assay with SF-539 CNS is 33.7 µM and > 100 µM; in the assay with HOP-92 NSCLC, 10.4 µM and > 100 µM; in the assay with KM12 colon, 69 µM and > 100 µM; in the assay on UACC-257 melanoma it was greater than 100 µM; with MCF7 breast, 35 µM and > 100 µM; in the assay with SK-OV-3 ovarian, greater than 100 µM. For the same compound, the TGI in the assay on SK-MEL-28 melanoma is greater than 100 µM; in the assay on A498 renal it was 18 µM and 75.2 µM.

In the case of `COC(=O)/C=C/N1CC1`, the TGI in the assay with SF-539 CNS, with KM12 colon, in the assay on UACC-257 melanoma, in the assay on MCF7 breast, in the assay with NCI-H23 lung and in the assay on SK-OV-3 ovarian was greater than 10 µM each time. The TGI in the assay on SR leukemia and with SK-MEL-28 melanoma was greater than 10 µM each time.

In the case of `CC(=O)CC(=O)ON(C)C(=O)Cc1ccccc1`, the TGI in the assay with SF-539 CNS, in the assay on HOP-92 NSCLC, in the assay on KM12 colon, in the assay with UACC-257 melanoma, in the assay on NCI-H23 lung and in the assay with SK-OV-3 ovarian was greater than 100 µM throughout. Further, the TGI with SR leukemia and in the assay on SK-MEL-28 melanoma was greater than 100 µM each time.

For `CSc1nc(Cl)c2c(n1)Sc1nc3ccccc3n1N=C2`, the TGI in the assay on HOP-92 NSCLC was 45.2 µM; with KM12 colon, greater than 100 µM; in the assay on UACC-257 melanoma, greater than 100 µM; in the assay on NCI-H23 lung, greater than 100 µM; with SK-OV-3 ovarian, greater than 100 µM; with SK-MEL-28 melanoma, greater than 100 µM. Moreover, the TGI with A498 renal is greater than 100 µM.

Take `Cc1ccccc1NC(=O)CC(=O)n1nc(-c2ccccc2)c(N=Nc2ccc([N+](=O)[O-])cc2)c1-c1ccccc1`: the TGI in the assay on SF-539 CNS is 52 µM; with HOP-92 NSCLC it was 34 µM; in the assay with KM12 colon it was 61.5 µM; in the assay with UACC-257 melanoma, 56.4 µM; with NCI-H23 lung it was greater than 100 µM; in the assay on SK-OV-3 ovarian, 57.7 µM. Moreover, the values for the TGI in the assay on SR leukemia and in the assay on SK-MEL-28 melanoma were greater than 100 µM and 96.9 µM, respectively.

Take `CCOC(=O)c1c[nH]c2cc3c(cc2c1=O)CCS3`: the TGI with SF-539 CNS, in the assay with HOP-92 NSCLC, in the assay with KM12 colon, in the assay on UACC-257 melanoma, in the assay with MCF7 breast and in the assay on NCI-H23 lung was greater than 100 µM each time. The TGI with SK-OV-3 ovarian, in the assay with SK-MEL-28 melanoma and in the assay on A498 renal was greater than 100 µM throughout.

Regarding `CC1(C)O[C@@H](CP(c2ccc3ccccc3c2)c2ccc3ccccc3c2)[C@H](CP(c2ccc3ccccc3c2)c2ccc3ccccc3c2)O1`, the TGI in the assay with KM12 colon, in the assay with UACC-257 melanoma, in the assay on MCF7 breast, in the assay with NCI-H23 lung, with SK-OV-3 ovarian and in the assay with SR leukemia was greater than 100 µM in each case. Further, the TGI with SK-MEL-28 melanoma is greater than 100 µM.

On to `Fc1ccc(C(OCCN2CCC3CCC(C2)N3C/C=C/c2cccnc2)c2ccc(F)cc2)cc1` (stereo not given), for which the TGI was determined as 25.2 µM in the assay with SF-539 CNS; 27 µM with HOP-92 NSCLC; 26.3 µM with KM12 colon; 12.3 µM with UACC-257 melanoma; 25.5 µM in the assay on MCF7 breast; 26.5 µM in the assay with NCI-H23 lung. Besides, the TGI with SK-OV-3 ovarian was 29.3 µM; with SK-MEL-28 melanoma, 5.38 µM; in the assay with A498 renal, 28 µM.
